{"source": "patent US9751837B2", "about": "“Kinase inhibitors” (RESPIVERT LIMITED, priority 2014, dated 2017)", "key": {"[1]": {"tested_on": "Salmonella typhimurium, strains TA1535, TA1537, TA98 and TA100", "assay": "Bacterial reverse mutation screen, Salmonella typhimurium", "settings": "for mutagenic effects (revertant numbers): TA1535, TA1537, TA98, TA100, presence or absence of S-9 mix; for mutagenic effects (revertant numbers) / limit of solubility in the mutation test: plate incorporation; for limit of solubility in the mutation test: all strains, presence and absence of S-9 mix"}, "[2]": {"assay": "Stability of pharmaceutical formulations (HPLC)", "format": "physicochemical", "settings": "1 mg/mL Na and HCl salts in 10 mM pH 7.2 phosphate buffer, 4.5% mannitol, 3% polyoxyl 40 stearate; 5° C.", "protocol": "The samples were sonicated to achieve clear solutions having the following properties: Osmolality (mOsm/kg): 310 (Na), 314 (HCl); pH: 7.00 (Na), 7.05 (HCl). 0.5 mL of the stock solutions were diluted to 1 mL with 20% DMSO in water & injected for purity analysis by HPLC. The remaining stock solutions were then split into aliquots of 0.5 mL in HPLC vials, and stored at various conditions in duplicate. Samples were stored at 5 and 25° C., before being analysed by HPLC at 1, 2 and 4 weeks. Separate samples were stored at 40° C. and analysed at 4 weeks."}, "[3]": {"tested_on": "Escherichia coli, WP2 uvrA", "assay": "Bacterial reverse mutation screen, Escherichia coli", "settings": "for mutagenic effects (revertant numbers): presence or absence of S-9 mix, plate incorporation"}, "LPS-stimulated rats": {"tested_on": "LPS-stimulated rats", "assay": "Endotoxin-induced uveitis in rats (vi)", "format": "in vivo, Lewis rats", "settings": "rats treated with intravitreal endotoxin LPS", "protocol": "Male, Lewis rats (6-8 weeks old, Charles River UK Limited) are housed in cages of 3 at 19-21° C. with a 12 h light/dark cycle (07:00/19:00) and fed a standard diet of rodent chow and water ad libitum. Non-fasted rats are weighed, individually identified on the tail with a permanent marker, and receive a single intravitreal administration into the right vitreous humor (5 μL dose volume) of 100 ng/animal of LPS (Escherichia coli 0111:B4 prepared in PBS, Sigma Aldrich, UK) using a 32-gauge needle. Untreated rats are injected with PBS. Test compound or vehicle (4% polyoxyl 40 stearate, 4% mannitol in PBS (pH 7.4)) are administered by the topical route onto the right eye (10 μL) of animals 1 hour prior to LPS, at the time of LPS administration, and 1, 2 and 4 hours post LPS administration. Before administration, the solution to be administered is sonicated to ensure a clear solution. 6 hours after LPS dosing, animals are euthanized by overdose with pentobarbitone (via cardiac puncture). Immediately after euthanasia, 10 μL of aqueous humor is collected from the right eye of the rats by puncture of the anterior chamber using a 32 gauge needle under a surgical microscope. The aqueous humor is diluted in 20 μL of PBS and total cell counts are measured immediately using a Countess automated cell counter (Invitrogen). […]"}, "[4]": {"format": "in vivo", "settings": "four daily instillations, 0.1 and 1.0 mg/mL, rabbits"}, "p38 MAPKα": {"target": "p38 MAPKα (Homo sapiens (Human), UniProt Q16539)", "sequence (Q16539 whole entry)": "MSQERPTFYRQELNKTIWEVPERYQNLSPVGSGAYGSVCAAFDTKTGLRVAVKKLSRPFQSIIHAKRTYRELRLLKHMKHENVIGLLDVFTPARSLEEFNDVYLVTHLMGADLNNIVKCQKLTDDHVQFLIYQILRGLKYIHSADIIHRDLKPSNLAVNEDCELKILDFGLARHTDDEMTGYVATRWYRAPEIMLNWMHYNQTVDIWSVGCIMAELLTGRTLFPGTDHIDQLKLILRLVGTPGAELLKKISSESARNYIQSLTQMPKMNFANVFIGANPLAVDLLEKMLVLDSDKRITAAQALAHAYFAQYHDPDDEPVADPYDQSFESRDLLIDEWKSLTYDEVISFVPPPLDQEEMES", "assay": "KINOMEscan dissociation constant, p38 MAPKα", "format": "binding", "from_the_text": "(§1) These assays may be conducted by DiscoverX (formerly Ambit; San Diego, Calif.)."}, "B-Raf": {"target": "B-Raf (Homo sapiens (Human), UniProt P15056)", "sequence (P15056 whole entry)": "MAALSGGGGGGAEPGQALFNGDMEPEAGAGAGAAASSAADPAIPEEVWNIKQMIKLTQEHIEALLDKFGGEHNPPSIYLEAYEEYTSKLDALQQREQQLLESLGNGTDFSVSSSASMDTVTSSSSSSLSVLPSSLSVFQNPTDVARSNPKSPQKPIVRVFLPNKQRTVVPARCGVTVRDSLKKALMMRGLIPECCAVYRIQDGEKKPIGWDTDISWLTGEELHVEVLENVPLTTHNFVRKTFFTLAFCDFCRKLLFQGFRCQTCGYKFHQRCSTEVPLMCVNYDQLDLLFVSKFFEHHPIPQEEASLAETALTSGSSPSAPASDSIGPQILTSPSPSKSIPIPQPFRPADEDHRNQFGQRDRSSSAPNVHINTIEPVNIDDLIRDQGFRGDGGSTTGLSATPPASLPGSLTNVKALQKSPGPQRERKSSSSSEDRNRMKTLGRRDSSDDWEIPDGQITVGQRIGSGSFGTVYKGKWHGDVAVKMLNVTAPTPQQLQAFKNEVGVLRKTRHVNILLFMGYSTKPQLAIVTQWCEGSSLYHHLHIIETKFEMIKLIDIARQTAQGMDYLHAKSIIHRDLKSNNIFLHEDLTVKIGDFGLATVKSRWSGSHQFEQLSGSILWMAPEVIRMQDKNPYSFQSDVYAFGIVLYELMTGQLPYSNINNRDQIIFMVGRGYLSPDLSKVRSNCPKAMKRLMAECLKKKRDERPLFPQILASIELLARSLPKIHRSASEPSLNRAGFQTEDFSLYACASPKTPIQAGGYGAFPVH", "assay": "KINOMEscan binding of B-Raf to its standard ligand", "from_the_text": "as §1"}, "Lck": {"target": "Lck (Homo sapiens (Human), UniProt P06239)", "sequence (P06239 whole entry)": "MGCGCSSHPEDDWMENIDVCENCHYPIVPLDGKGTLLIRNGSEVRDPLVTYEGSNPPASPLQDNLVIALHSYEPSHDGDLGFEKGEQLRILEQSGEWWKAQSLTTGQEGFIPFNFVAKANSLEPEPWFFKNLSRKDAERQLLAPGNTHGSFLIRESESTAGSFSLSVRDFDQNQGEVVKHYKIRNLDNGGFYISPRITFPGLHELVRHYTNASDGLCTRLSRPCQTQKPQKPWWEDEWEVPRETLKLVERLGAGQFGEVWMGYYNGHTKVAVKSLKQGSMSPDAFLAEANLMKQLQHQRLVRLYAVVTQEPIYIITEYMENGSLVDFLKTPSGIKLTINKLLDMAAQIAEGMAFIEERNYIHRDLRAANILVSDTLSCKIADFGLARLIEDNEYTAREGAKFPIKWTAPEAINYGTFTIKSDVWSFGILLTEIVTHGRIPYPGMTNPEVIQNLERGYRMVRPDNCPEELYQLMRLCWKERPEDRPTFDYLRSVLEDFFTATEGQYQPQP", "assay": "KINOMEscan dissociation constant, Lck", "format": "binding", "from_the_text": "as §1"}, "[5]": {"assay": "Pharmacokinetics and total colon distribution after single oral administration", "format": "in vivo, male C57BL/6 mice", "settings": "male, C57BL/6, mouse, mice, oral 5 mg/kg", "protocol": "Studies were conducted by Sai Life Sciences (Hinjewadi, Pune, India) to investigate the systemic pharmacokinetics and total colon tissue distribution of compounds of the invention. In particular, pharmacokinetic studies were carried out in male C57BL/6 mice following a single oral administration of the compound."}, "Syk": {"target": "Syk (Homo sapiens (Human), UniProt P43405)", "assay": "KINOMEscan dissociation constant, Syk", "format": "binding", "from_the_text": "as §1"}, "B-Raf (V600E)": {"target": "B-Raf (V600E) (Homo sapiens (Human), UniProt P15056, V600E)", "sequence (P15056 whole entry V600E)": "as the sequence (P15056 whole entry) above, with V600E counted along it", "assay": "KINOMEscan binding of B-Raf (V600E) to its standard ligand", "from_the_text": "as §1"}, "hERG": {"target": "hERG (Homo sapiens (Human), UniProt Q12809)", "sequence (Q12809 whole entry)": "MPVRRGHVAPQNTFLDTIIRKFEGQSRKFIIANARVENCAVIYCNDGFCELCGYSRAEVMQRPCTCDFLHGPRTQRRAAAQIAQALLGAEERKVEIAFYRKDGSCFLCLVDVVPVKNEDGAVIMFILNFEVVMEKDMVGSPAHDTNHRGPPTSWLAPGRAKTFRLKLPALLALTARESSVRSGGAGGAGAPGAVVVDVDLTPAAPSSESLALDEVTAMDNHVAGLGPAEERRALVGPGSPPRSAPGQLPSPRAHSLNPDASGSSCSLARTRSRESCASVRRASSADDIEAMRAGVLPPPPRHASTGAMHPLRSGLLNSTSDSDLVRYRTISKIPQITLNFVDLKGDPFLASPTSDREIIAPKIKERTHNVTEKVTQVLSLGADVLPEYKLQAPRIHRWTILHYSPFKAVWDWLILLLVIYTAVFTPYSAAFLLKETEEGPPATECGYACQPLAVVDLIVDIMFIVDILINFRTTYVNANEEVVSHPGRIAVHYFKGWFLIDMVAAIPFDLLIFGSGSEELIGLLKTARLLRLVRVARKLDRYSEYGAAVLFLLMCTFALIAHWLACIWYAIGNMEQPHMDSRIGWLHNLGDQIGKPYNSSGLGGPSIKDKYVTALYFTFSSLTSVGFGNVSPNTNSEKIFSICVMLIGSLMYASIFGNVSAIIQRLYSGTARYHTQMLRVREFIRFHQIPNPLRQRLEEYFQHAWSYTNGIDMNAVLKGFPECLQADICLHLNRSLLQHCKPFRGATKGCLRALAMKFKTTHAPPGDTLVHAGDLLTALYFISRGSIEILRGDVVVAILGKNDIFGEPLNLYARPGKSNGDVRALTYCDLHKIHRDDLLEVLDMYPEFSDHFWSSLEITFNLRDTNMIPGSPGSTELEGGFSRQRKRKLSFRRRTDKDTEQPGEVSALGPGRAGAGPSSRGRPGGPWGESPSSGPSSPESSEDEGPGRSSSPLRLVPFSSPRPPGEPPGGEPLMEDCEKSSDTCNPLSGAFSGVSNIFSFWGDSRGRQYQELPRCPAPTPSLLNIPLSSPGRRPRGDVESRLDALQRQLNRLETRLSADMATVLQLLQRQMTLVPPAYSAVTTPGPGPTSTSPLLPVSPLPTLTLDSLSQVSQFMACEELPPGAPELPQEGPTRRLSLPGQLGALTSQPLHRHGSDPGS", "assay": "hERG inhibition, IonWorks patch clamp electrophysiology", "format": "cell-based", "settings": "human; hERG, 11 μM; read-out: % Inhibition at Top Concentration", "protocol": "(§2) Compounds of the invention were tested for inhibition of the human ether a go-go (hERG) channel using IonWorks™ patch clamp electrophysiology at Essen Bioscience (Welwyn Garden City, England)."}, "[6]": {"target": "human ether a go-go (hERG) channel (Homo sapiens (Human), UniProt Q12809)", "sequence (Q12809 whole entry)": "as above", "assay": "hERG inhibition, IonWorks patch clamp electrophysiology", "format": "cell-based", "settings": "IonWorks patch clamp", "protocol": "as §2"}, "c-Src": {"target": "c-Src (Homo sapiens (Human), UniProt P12931)", "sequence (P12931 whole entry, looked up)": "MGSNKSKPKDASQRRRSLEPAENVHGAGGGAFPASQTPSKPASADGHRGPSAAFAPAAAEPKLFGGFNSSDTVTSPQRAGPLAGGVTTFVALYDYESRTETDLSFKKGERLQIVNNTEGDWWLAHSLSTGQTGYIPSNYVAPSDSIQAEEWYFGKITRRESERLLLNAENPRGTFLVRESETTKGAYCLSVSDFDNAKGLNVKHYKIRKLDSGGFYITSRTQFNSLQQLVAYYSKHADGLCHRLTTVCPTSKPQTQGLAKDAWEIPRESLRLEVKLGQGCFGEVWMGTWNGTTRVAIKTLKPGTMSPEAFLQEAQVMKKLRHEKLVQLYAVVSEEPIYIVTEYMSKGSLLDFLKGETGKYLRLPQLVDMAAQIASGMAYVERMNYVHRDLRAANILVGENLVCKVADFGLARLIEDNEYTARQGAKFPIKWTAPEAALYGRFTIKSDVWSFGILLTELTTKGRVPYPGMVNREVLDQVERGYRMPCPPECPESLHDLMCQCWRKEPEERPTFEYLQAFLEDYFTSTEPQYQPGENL", "assay": "c-Src enzyme inhibition, Z-LYTE FRET", "format": "biochemical", "protocol": "(§3) The enzyme inhibitory activities of compounds disclosed herein are determined by FRET using synthetic peptides labelled with both donor and acceptor fluorophores (Z-LYTE, Invitrogen Ltd., Paisley, UK).\nThe inhibitory activities of compounds of the invention against c-Src and Syk enzymes (Invitrogen), are evaluated in a similar fashion to that described hereinabove. The relevant enzyme (3000 ng/mL or 2000 ng/mL respectively, 2.5 μL) is incubated with the test compound (either 1 μg/mL, 0.1 μg/mL, 0.01 μg/mL, or 0.001 μg/mL, 2.5 μL each) for 2 hr at RT. The FRET peptides (8 μM. 2.5 μL), and appropriate ATP solutions (2.5 μL, 800 μM for c-Src, and 60 μM ATP for Syk) are then added to the enzymes/compound mixtures and the mixture incubated for 1 hr. Development reagent (protease, 5 μL) is added for 1 hr prior to detection in a fluorescence microplate reader (Varioskan® Flash, ThermoFisher Scientific).\n(§4) In all cases, the site-specific protease cleaves non-phosphorylated peptide only and eliminates the FRET signal. Phosphorylation levels of each reaction are calculated using the ratio of coumarin emission (donor) over fluorescein emission (acceptor), for which high ratios indicate high phosphorylation and low ratios indicate low phosphorylation levels."}, "p38 MAPKα (MAPK14)": {"target": "p38 MAPKα (MAPK14) (Homo sapiens (Human), UniProt Q16539)", "sequence (Q16539 whole entry, canonical isoform)": "as the sequence (Q16539 whole entry) above", "assay": "p38 MAPKα enzyme inhibition (Method 2), Z-LYTE FRET", "format": "biochemical", "protocol": "as §3\nThe following two assay variants can be used for determination of p38 MAPKα inhibition.\nThe inhibitory activities of test compounds against the p38 MAPKα isoform (MAPK14: Invitrogen) are evaluated indirectly by determining the level of activation/phosphorylation of the down-stream molecule, MAPKAP-K2. The p38 MAPKα protein (80 ng/mL, 2.5 μL) is mixed with the test compound (2.5 μL of either 4 μg/mL, 0.4 μg/mL, 0.04 μg/mL or 0.004 μg/mL) for 2 hr at RT. […] The mixture is incubated for 1 hr at RT. Development reagent (protease, 5 μL) is added for 1 hr prior to detection in a fluorescence microplate reader (Varioskan® Flash, ThermoFisher Scientific). […]\nas §4"}, "[7]": {"settings": "plasma, measured cpd = dosed cpd (1 as Na salt, 44 as NH4+ salt), read-out: Mean plasma concentration"}, "[8]": {"settings": "total colon tissue, measured cpd = dosed cpd (1, 19, 47 as Na salt, 44 as NH4+ salt), read-out: total colon level"}, "[9]": {"settings": "total colon, measured cpd = dosed cpd (1, 19, 47 as Na salt, 44 as NH4+ salt), read-out: total colon level"}}, "note": "Where two headings read alike, the source gives them in different places."}
{"smiles": "COc1cc(Nc2cc(Oc3ccc(NC(=O)Nc4cc(C(C)(C)C)cc(NS(C)(=O)=O)c4OC)c4ccccc34)ccn2)ccc1C(=O)O", "note": "[Example 1, 4-((4-((4-(3-(5-(tert-Butyl)-2-methoxy-3-(methylsulfonamido)phenyl)ureido)naphthalen-1-yl)oxy)pyridin-2-yl)amino)-2-methoxybenzoic acid]", "values": [{"measurement": "mutagenic effects (revertant numbers)", "setting": "[1]", "result": "absence of any mutagenic effects"}, {"measurement": "dose with reduction in the mean colony count (toxicity to the bacteria)", "setting": "[1]; TA1535, presence of S-9 mix", "result": 1500, "unit": "μg/plate"}, {"measurement": "limit of solubility in the mutation test", "setting": "[1]", "result": 1500, "unit": "μg/plate"}, {"measurement": "stability in solution", "setting": "[2]", "result": "stable"}, {"measurement": "mutagenic effects (revertant numbers)", "setting": "[3]", "result": "absence of any mutagenic effects"}, {"measurement": "cellular infiltration and cytokine IL-1β levels in anterior and posterior segments of the eyes", "setting": "LPS-stimulated rats", "result": "significantly and dose-dependently reduced"}, {"measurement": "local tolerability of the formulations (ocular)", "setting": "[4]; Phase 1: one treatment day", "result": "acceptable"}, {"measurement": "local tolerability of the formulations (ocular)", "setting": "[4]; Phase 2: three consecutive treatment days", "result": "acceptable"}]}
{"smiles": "COc1cc(Nc2cc(Oc3ccc(NC(=O)Nc4cc(C(C)(C)C)cc(NS(C)(=O)=O)c4OC)c4ccccc34)ccn2)ccc1P(C)(=O)O", "note": "[Example 44, (4-((4-((4-(3-(5-(tert-Butyl)-2-methoxy-3-(methylsulfonamido)phenyl)ureido)naphthalen-1-yl)oxy)pyridin-2-yl)amino)-2-methoxyphenyl)(methyl)phosphinic acid]", "values": [{"measurement": "Kd", "setting": "p38 MAPKα", "result": 1.9, "unit": "nM"}, {"measurement": "dose with reduction in the mean colony count (toxicity to the bacteria)", "setting": "[1]; TA98, presence of S-9 mix", "result": 5000, "unit": "μg/plate"}, {"measurement": "dose with reduction in the mean colony count (toxicity to the bacteria)", "setting": "[1]; TA100, presence of S-9 mix", "result": 5000, "unit": "μg/plate"}, {"measurement": "mutagenic effects (revertant numbers)", "setting": "[1]", "result": "absence of any mutagenic effects"}, {"measurement": "dose with reduction in the mean colony count (toxicity to the bacteria)", "setting": "[1]; TA1535, presence of S-9 mix", "result": 5000, "unit": "μg/plate"}, {"measurement": "dose with reduction in the mean colony count (toxicity to the bacteria)", "setting": "[1]; TA1537, presence of S-9 mix", "result": 5000, "unit": "μg/plate"}, {"measurement": "limit of solubility in the mutation test", "setting": "[1]", "result": 5000, "unit": "μg/plate"}, {"measurement": "effect on the binding of B-Raf to its standard ligand", "setting": "B-Raf", "result": "did not have any significant effect"}, {"measurement": "Kd", "setting": "Lck", "result": 5.3, "unit": "nM"}, {"measurement": "concentration at 0.5 h", "setting": "[5]; [7]", "result": 0, "unit": "ng/mL"}, {"measurement": "concentration at 1 h", "setting": "[5]; [7]", "result": 0, "unit": "ng/mL"}, {"measurement": "concentration at 2 h", "setting": "[5]; [7]", "result": 0, "unit": "ng/mL"}, {"measurement": "concentration at 4 h", "setting": "[5]; [7]", "result": 0, "unit": "ng/mL"}, {"measurement": "concentration at 6 h", "setting": "[5]; [7]", "result": 0, "unit": "ng/mL"}, {"measurement": "concentration at 8 h", "setting": "[5]; [7]", "result": 0, "unit": "ng/mL"}, {"measurement": "concentration at 12 h", "setting": "[5]; [7]", "result": 0, "unit": "ng/mL"}, {"measurement": "concentration at 24 h", "setting": "[5]; [7]", "result": 0, "unit": "ng/mL"}, {"measurement": "concentration at 2 h", "setting": "[5]; [8]", "result": 2330, "unit": "ng/g"}, {"measurement": "concentration at 4 h", "setting": "[5]; [8]", "result": 1750, "unit": "ng/g"}, {"measurement": "concentration at 6 h", "setting": "[5]; [8]", "result": 450, "unit": "ng/g"}, {"measurement": "concentration at 8 h", "setting": "[5]; [8]", "result": 915, "unit": "ng/g"}, {"measurement": "concentration at 12 h", "setting": "[5]; [8]", "result": 180, "unit": "ng/g"}, {"measurement": "concentration at 0.5 h", "setting": "[5]; [9]", "result": 0, "unit": "ng/g"}, {"measurement": "concentration at 1 h", "setting": "[5]; [9]", "result": 0, "unit": "ng/g"}, {"measurement": "concentration at 24 h", "setting": "[5]; [9]", "result": 0, "unit": "ng/g"}, {"measurement": "dose with reduction in the mean colony count (toxicity to the bacteria)", "setting": "[3]; absence of S-9 mix", "result": 5000, "unit": "μg/plate"}, {"measurement": "mutagenic effects (revertant numbers)", "setting": "[3]", "result": "absence of any mutagenic effects"}, {"measurement": "Kd", "setting": "Syk", "result": 6.6, "unit": "nM"}, {"measurement": "effect on the binding of B-Raf (V600E) to its standard ligand", "setting": "B-Raf (V600E)", "result": "did not have any significant effect"}, {"measurement": "inhibition at 11 µM", "setting": "hERG", "result": 18, "unit": "%"}, {"measurement": "IC50", "setting": "[6]", "result": "> 11000", "unit": "nM"}]}
{"smiles": "COc1c(NC(=O)Nc2ccc(Oc3ccnc(Nc4ccc(C(=O)NCCN5CCOCC5)cc4)c3)c3ccccc23)cc(C(C)(C)C)cc1NS(C)(=O)=O", "note": "[17(u), 4-[[4-[[4-[[5-tert-butyl-3-(methanesulfonamido)-2-methoxy-phenyl]carbamoylamino]-1-naphthyl]oxy]-2-pyridyl]amino]-N-(2-morpholinoethyl)benzamide]", "values": [{"measurement": "IC50", "setting": "c-Src", "result": 32, "unit": "nM"}, {"measurement": "IC50", "setting": "p38 MAPKα (MAPK14)", "result": 66, "unit": "nM"}]}
